These results are taken from ChEMBL document CHEMBL1147543, “Styrylheterocycles as a novel class inhibitor of cyclooxygenase-2-mediated prostaglandin E(2) production” (Bioorg Med Chem Lett, 2004).

Structures are written as SMILES.

In this experiment the test system is RAW264.7. The experiment is described as follows: Inhibitory effect on PGE-2 production in LPS-stimulated RAW264.7 cells. In kind it is functional, cell-based. The conditions noted are these: Mus musculus.
In general, IC50 refers to the concentration needed to halve the response being measured. High values mean weaker potency, low ones greater potency. In the case of `COc1cc(/C=C/c2cc(OC)c(OC)cc2OC)cc(OC)c1`, the IC50 was found to be 7.4 µM.
For `Oc1ccc(/C=C/c2cc(O)cc(O)c2)cc1` [RESVERATROL] the value was 4 µM.
In turn, `COc1cc(/C=C/c2cc(OC)cc(OC)c2)cc(OC)c1` registered an IC50 above 33.3 µM.
